Results: patent US8629251B2, “Specific detection and quantification of phosphatidic acid using an Arabidopsis trigalactosyldiacylglycerol-4 (TGD4) protein” (Board of Trustees of Michigan State University, priority 2008, dated 2014)
Entries after “also recorded” stand apart in the source; their conditions may differ.

How the values were obtained:
[1] = biological target: T1, Arabidopsis TGD2, DsRed-TGD2C minimal domain (DR-25, TGD2C T8, residues 201-225, SEQ ID NO:12) (Arabidopsis thaliana, UniProt Q9LTR2); experiment: Liposome-association assay, minimal domain DR-25; assay type: binding
T1 sequence (Q9LTR2 201-225): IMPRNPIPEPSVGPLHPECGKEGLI
Protocol: (§1) The liposome association assay was performed as previously reported. (31). Briefly, lipids (dioleoyl-phosphatidylcholine, DOPC or dioleoyl-PA, DOPA) were incubated in TBS (50 mM Tris-HCl, pH 7; 0.1 M NaCl) at 37° C. for an hour followed by vigorous vortexing for 5 min. The liposomes were precipitated at 20,000 g and washed twice with ice-cold TBS.
(§2) Liposomes (200 μg) were mixed with purified DsRed-TGD2 fusion protein and TBS to make a final 100 μL solution. The mixture was incubated at 30° C. for 30 min and washed twice with ice-cold TBS by centrifugation at 20,000 g at 4° C. The liposome pellet mixed with sample buffer was analyzed by SDS-PAGE (28). Immuno-detection of the His-tagged protein was accomplished using the above mentioned Penta-His antibody at 1:15,000 and the anti mouse antibody at 1:75,000 dilution.
(§3) The protein band was visualized by chemiluminescent detection kit from Sigma. The autoradiography film was scanned, distinct protein bands were quantified using computer software Multi Gauge V3.0 (Fujifilm USA, Valhalla, N.Y.) and resulted data were plotted and analyzed by OriginPro8 (Origin lab corporation, Northampton, Mass.).

[2] = biological target: T2, Arabidopsis TGD4, DsRED-TGD4C-His (C-terminal fragment 309-479, SEQ ID NO: 131) (Arabidopsis thaliana, UniProt Q9M903); experiment: Liposome association assay, DsRED-TGD4C-His; assay type: binding; details: dioleoyl-PtdOH/dioleoyl-PtdCho liposomes, 0 to 80% PtdOH, FIG. 19B
T2 sequence (Q9M903 309-479): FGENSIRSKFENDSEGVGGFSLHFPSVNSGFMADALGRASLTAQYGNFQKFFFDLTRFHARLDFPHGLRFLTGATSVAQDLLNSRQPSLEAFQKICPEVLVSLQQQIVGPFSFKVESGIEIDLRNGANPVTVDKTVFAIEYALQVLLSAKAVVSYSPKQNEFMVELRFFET
Protocol: (§4) Liposome Association Assay:
(§5) The liposome association assay was adapted from (Awai et al., 2006, Lu and Benning, 2009) with minor modifications. Dioleoyl-PtdCho and PtdOH with different acyl chain lengths and desaturation levels were used for making liposomes. In other liposomes 1-palmitoyl-2-(12-((7-nitro-2-1,3-benzoxadiazol-4-yl)amino)dodecanoyl)-sn-glycero-3-phosphate (NBD-PtdOH; Avanti, Alabaster, Ala.) was used. The lipids were mixed at indicated ratios to give a total lipid amount of 250 μg. The lipids were dried under a stream of nitrogen, resuspended in 0.5 ml TBS buffer with 0.2 M choline chloride and hydrated at 37° C. for 1 hour followed by vigorous vortexing for 2 minutes. The resulting multi-lamellar vesicles were centrifuged at 13,000×g for 10 minutes and then washed once with TBS buffer containing 0.2 M choline chloride. The liposomes were resuspended into 100 μl TBS buffer with 0.2 M choline chloride and incubated with 2 μg purified DsRED-TGD4-His protein and its derivatives. The protein liposome mixture was incubated on ice for 30 minutes followed by centrifugation at 13,000×g for 10 minutes and two washes with 500 μl TBS containing 0.2 M choline chloride. The resulting protein-liposome pellet was resuspended in 20 μl 2× Laemmli buffer (Laemmli, 1970) and processed by SDS-PAGE (Shapiro and Maizel, 1969).

[3] = biological target: T3, Arabidopsis TGD4, DsRED-ΔTGD4-His (hydrophobic region 287D-309F deleted, SEQ ID NO:133) (Arabidopsis thaliana, UniProt Q9M903, DEL287-309); experiment: Liposome association assay, DsRED-ΔTGD4-His; assay type: binding; details: dioleoyl-PtdOH/dioleoyl-PtdCho liposomes, 0 to 80% PtdOH, FIG. 19B
T3 construct: b369 deletes nt 859-924 (22 codons)
T3 sequence (Q9M903 other isoform, or with tags, fused parts or gaps DEL287-309): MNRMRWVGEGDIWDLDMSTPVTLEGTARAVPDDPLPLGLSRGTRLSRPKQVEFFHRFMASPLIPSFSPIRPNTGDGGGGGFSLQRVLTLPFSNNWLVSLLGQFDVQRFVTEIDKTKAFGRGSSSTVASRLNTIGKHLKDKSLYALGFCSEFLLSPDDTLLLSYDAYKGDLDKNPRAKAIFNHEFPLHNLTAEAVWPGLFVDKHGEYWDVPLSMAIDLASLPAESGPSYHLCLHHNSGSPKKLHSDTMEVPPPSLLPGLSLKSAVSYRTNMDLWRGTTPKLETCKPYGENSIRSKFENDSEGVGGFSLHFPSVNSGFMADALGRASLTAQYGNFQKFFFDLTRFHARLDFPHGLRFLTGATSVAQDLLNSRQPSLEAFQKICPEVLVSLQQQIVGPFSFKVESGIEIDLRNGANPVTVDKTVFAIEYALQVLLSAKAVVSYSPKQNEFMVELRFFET
Protocol: as §4, §5

[4] = biological target: Arabidopsis TGD2, DsRed fusion of the 25-mer minimal domain (residues 201-225, SEQ ID NO:12), K221A (Arabidopsis thaliana, UniProt Q9LTR2, K221A); experiment: Liposome-association assay, point mutant K221A of the minimal domain; assay type: binding; details: 100% PA liposomes, FIG. 4C
Sequence of Arabidopsis TGD2, DsRed fusion of the 25-mer minimal domain (residues 201-225, SEQ ID NO:12), K221A (Q9LTR2 201-225 K221A): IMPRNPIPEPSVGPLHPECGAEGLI
Protocol: Some reports have identified that TGD2 PA-binding regions involve basic amino acids and/or tryptophan residues (10). […] Based on sequence similarity of TGD2 to its closely related homologs in plants and green algae, several charged and/or conserved amino acids were picked as potential interesting residues in the 25-mer minimal domain for possibly mediating interactions with PA. An alanine screen was then performed to evaluate these residues within a minimal PA binding region of TGD2 (i.e., for example, SEQ ID NO:12). Point mutations were generated in the 25-mer minimal domain and fused with DsRed to test PA binding by liposome-association assay using 100% PA liposomes.
The liposome association assay was performed as previously reported. (31). […]
Liposomes (200 μg) were mixed with purified DsRed-TGD2 fusion protein and TBS to make a final 100 μL solution. […] The liposome pellet mixed with sample buffer was analyzed by SDS-PAGE (28). […]
as §3

[5] = test system: RafC (Raf-1 kinase); details: literature (ref. 11); cited from earlier work
[6] = biological target: Arabidopsis TGD2, DsRed-TGD2C D1 (Δ221-250, SEQ ID NO:43) (Arabidopsis thaliana, UniProt Q9LTR2, DEL221-250); experiment: Liposome-association assay, TGD2C D1 (Δ221-250); assay type: binding; details: FIG. 3C
Sequence of Arabidopsis TGD2, DsRed-TGD2C D1 (Δ221-250, SEQ ID NO:43) (Q9LTR2 other isoform, or with tags, fused parts or gaps DEL221-250): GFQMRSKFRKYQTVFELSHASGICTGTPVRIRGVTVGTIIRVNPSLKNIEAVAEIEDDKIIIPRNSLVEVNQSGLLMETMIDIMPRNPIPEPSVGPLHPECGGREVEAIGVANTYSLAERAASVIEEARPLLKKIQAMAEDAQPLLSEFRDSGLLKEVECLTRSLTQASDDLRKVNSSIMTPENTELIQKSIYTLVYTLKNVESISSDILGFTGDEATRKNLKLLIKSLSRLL
Protocol: as §1, §2, §3

[7] = biological target: T4, Arabidopsis TGD2, DsRed-TGD2C T5 (residues 119-300, SEQ ID NO:28) (Arabidopsis thaliana, UniProt Q9LTR2); experiment: Liposome-association assay, TGD2C T5 (119-300); assay type: binding; details: FIG. 3C
T4 sequence (Q9LTR2 119-300): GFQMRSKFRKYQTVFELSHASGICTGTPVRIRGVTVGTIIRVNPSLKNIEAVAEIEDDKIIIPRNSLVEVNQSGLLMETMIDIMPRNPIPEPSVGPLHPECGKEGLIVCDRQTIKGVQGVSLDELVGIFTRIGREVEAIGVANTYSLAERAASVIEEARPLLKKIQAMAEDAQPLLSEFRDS
Protocol: as §1, §2, §3

## CCCCCCCC/C=C\CCCCCCCC(=O)OC[C@H](COP(=O)(O)O)OC(=O)CCCCCCC/C=C\CCCCCCCC [PA, phosphatidic acid]
[1]; PA liposomes, FIG. 4A
  PA binding: sufficient to mediate specific binding to PA
[1]; mixed PA/PC liposomes, FIG. 5
  cooperativity of PA binding: loses positive cooperativity; also recorded: not cooperative
[2]
  PtdOH binding affinity: much lower affinity compared to the wild-type protein DsRED-TGD4-His but still bound PtdOH
[3]
  PtdOH binding activity: did not require the central hydrophobic region of TGD4
[4]
  PA binding: significantly reduced the amount of interaction with PA-liposomes
[5]
  RafC-PA association: 20 mol % PA
[6]
  PA binding: did not seem to affect PA binding
[7]
  PA binding: strong binding
